pIC50: −log10 of the molar value. Structures can show the parent of a compound that is named as a salt.
biological target: ROCK2 (Homo sapiens, UniProt O75116); assay: ROCK2 kinase inhibition assay (Caliper LABCHIP, FITC peptide substrate); assay type: biochemical; details: 5 μM ATP, 1.5 μM peptide substrate; value ranges
Method in brief: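 Rho kinase with 5 μM ATP and 1.5 μM FITC-AHA-AKRRRLSSLRA-OH peptide in HEPES pH 7.5, 20 mM MgCl2, 0.015% Brij-35, 4 mM DTT, DMSO <2%. EDTA stop; phospho and non-phospho peptide separated on LabChip. IC50 from dose-response fit.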

Sequence of ROCK2 (O75116 whole entry, species assumed): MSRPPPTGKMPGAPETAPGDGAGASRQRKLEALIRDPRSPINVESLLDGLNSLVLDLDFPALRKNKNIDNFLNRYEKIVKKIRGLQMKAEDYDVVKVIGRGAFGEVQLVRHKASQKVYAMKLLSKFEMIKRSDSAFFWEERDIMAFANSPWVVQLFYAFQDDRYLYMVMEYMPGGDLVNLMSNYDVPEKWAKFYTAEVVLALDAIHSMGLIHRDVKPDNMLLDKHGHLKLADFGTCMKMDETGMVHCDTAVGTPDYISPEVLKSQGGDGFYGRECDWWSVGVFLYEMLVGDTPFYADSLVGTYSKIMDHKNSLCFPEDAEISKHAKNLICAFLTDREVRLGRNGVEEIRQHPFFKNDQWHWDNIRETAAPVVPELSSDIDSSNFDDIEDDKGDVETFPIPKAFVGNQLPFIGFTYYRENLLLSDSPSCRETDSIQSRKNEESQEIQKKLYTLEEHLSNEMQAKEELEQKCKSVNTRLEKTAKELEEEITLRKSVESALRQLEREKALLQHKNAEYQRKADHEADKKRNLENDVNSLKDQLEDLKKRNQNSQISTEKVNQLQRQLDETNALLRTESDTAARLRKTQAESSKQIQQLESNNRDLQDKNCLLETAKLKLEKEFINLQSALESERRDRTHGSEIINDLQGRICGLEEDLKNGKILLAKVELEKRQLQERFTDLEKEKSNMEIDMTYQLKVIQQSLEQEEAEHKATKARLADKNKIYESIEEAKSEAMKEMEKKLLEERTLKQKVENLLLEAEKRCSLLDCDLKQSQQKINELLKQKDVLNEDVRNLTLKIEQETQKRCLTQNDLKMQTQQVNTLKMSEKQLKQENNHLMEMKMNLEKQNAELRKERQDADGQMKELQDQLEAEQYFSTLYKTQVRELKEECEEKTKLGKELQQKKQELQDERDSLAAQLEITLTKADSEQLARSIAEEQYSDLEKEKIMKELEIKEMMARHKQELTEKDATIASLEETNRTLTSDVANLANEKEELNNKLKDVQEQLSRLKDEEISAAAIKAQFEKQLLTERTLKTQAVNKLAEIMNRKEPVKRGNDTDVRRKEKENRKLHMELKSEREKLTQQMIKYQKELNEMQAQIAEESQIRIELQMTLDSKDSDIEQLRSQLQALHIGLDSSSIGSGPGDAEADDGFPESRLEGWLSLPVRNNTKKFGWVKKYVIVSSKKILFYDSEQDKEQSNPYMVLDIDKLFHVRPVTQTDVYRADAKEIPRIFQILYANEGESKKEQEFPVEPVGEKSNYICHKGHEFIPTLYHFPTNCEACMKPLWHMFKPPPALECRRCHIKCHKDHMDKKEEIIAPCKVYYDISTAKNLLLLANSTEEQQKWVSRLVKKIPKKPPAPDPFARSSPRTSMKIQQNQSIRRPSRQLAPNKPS

Q: How did the pIC50 turn out when `COc1cccc(C(C)n2ccn(-c3ccc(-c4cn[nH]c4)c(OC)n3)c2=O)c1` (single isomer, unassigned) [Example 401, 1-(6-methoxy-5-(1H-pyrazol-4-yl)pyridin-2-yl)-3-(1-(3-methoxyphenyl)ethyl)-1H-imidazol-2(3H)-one] was run?
A: 7.70 to 8.68

Q: `COc1cccc(C(C)N2CCN(c3ccc(-c4cn[nH]c4)cn3)C2=O)c1` (single isomer, unassigned) [Example 459, 1-(5-(1H-pyrazol-4-yl)pyridin-2-yl)-3-(1-(3-methoxyphenyl)ethyl)imidazolidin-2-one] was tested. Which pIC50 did it give?
A: 6.70 to 7.70

Q: With `COc1cccc(C(C)N2CCN(c3ccc(-c4cn[nH]c4)cn3)C2=O)c1` (single isomer, unassigned) [Example 460, 1-(5-(1H-pyrazol-4-yl)pyridin-2-yl)-3-(1-(3-methoxyphenyl)ethyl)imidazolidin-2-one] as the compound, how does the pIC50 read?
A: > 8.70

Q: With `COc1cccc(C(CO)N2CCN(c3ccc(-c4cn[nH]c4)cn3)C2=O)c1` (single isomer, unassigned) [Example 461, 1-(5-(1H-pyrazol-4-yl)pyridin-2-yl)-3-(2-hydroxy-1-(3-methoxyphenyl)ethyl)imidazolidin-2-one] as the compound, how does the pIC50 read?
A: > 8.70

Q: With `COc1cccc(C(CO)N2CCN(c3ccc(-c4cn[nH]c4)cn3)C2=O)c1` (single isomer, unassigned) [Example 462, 1-(5-(1H-pyrazol-4-yl)pyridin-2-yl)-3-(2-hydroxy-1-(3-methoxyphenyl)ethyl)imidazolidin-2-one] as the compound, how does the pIC50 read?
A: 6.70 to 7.70

Q: With `COc1cccc(C(C)N2CCN(c3cc(C)c(-c4cn[nH]c4)cn3)C2=O)c1` (single isomer, unassigned) [Example 470, 1-(1-(3-methoxyphenyl)ethyl)-3-(4-methyl-5-(1H-pyrazol-4-yl)pyridin-2-yl)imidazolidin-2-one] as the compound, how does the pIC50 read?
A: 6.70 to 7.70

Q: With `COc1cccc(C(C)N2CCN(c3cc(C)c(-c4cn[nH]c4)cn3)C2=O)c1` (single isomer, unassigned) [Example 471, 1-(1-(3-methoxyphenyl)ethyl)-3-(4-methyl-5-(1H-pyrazol-4-yl)pyridin-2-yl)imidazolidin-2-one] as the compound, how does the pIC50 read?
A: 6.70 to 7.70

Q: `COc1cccc(CN2C(=O)N(c3ccc(-c4cn[nH]c4)cc3)CC2CO)c1` (single isomer, unassigned; (+)) [Example 42, (+)-1-(4-(1H-Pyrazol-4-yl)phenyl)-4-(hydroxymethyl)-3-(3-methoxybenzyl)imidazolidin-2-one] was tested. Which pIC50 did it give?
A: > 8.70

Q: How did the pIC50 turn out when `COc1cccc(CN2C(=O)N(c3ccc(-c4cn[nH]c4)cc3)CC2C(C)(C)O)c1` (single isomer, unassigned; (+)) [Example 45, (+)-1-(4-(1H-Pyrazol-4-yl)phenyl)-4-(2-hydroxypropan-2-yl)-3-(3-methoxybenzyl)imidazolidin-2-one] was run?
A: > 8.70

Q: With `COc1cccc(CN2CC(CO)N(c3ccc(-c4cn[nH]c4)cc3)C2=O)c1` (single isomer, unassigned; (+)) [Example 48, (+)-3-(4-(1H-Pyrazol-4-yl)phenyl)-4-(hydroxymethyl)-1-(3-methoxybenzyl)imidazolidin-2-one] as the compound, how does the pIC50 read?
A: 7.70 to 8.68

Q: `CC(c1ccccc1)n1ccn(-c2ccc(-c3cn[nH]c3)cc2)c1=O` (single isomer, unassigned; (+)) [Example 72, (+)-1-(4-(1H-pyrazol-4-yl)phenyl)-3-(1-phenylethyl)-1H-imidazol-2(3H)-one] was tested. Which pIC50 did it give?
A: 7.70 to 8.68

Q: How did the pIC50 turn out when `COc1cccc(CN2C(=O)N(c3ccc(-c4cn[nH]c4)cc3)CC2CO)c1` (single isomer, unassigned; (-)) [Example 43, (−)-1-(4-(1H-Pyrazol-4-yl)phenyl)-4-(hydroxymethyl)-3-(3-methoxybenzyl)imidazolidin-2-one] was run?
A: > 8.70

Q: `COc1cccc(CN2C(=O)N(c3ccc(-c4cn[nH]c4)cc3)CC2C(C)(C)O)c1` (single isomer, unassigned; (-)) [Example 44, (−)-1-(4-(1H-Pyrazol-4-yl)phenyl)-4-(2-hydroxypropan-2-yl)-3-(3-methoxybenzyl)imidazolidin-2-one] was tested. Which pIC50 did it give?
A: > 8.70

Q: How did the pIC50 turn out when `COc1cccc(CN2CC(CO)N(c3ccc(-c4cn[nH]c4)cc3)C2=O)c1` (single isomer, unassigned; (-)) [Example 47, (−)-3-(4-(1H-Pyrazol-4-yl)phenyl)-4-(hydroxymethyl)-1-(3-methoxybenzyl)imidazolidin-2-one] was run?
A: 6.70 to 7.70

Q: With `CC(c1ccccc1)n1ccn(-c2ccc(-c3cn[nH]c3)cc2)c1=O` (single isomer, unassigned; (-)) [Example 73, (−)-1-(4-(1H-pyrazol-4-yl)phenyl)-3-(1-phenylethyl)-1H-imidazol-2(3H)-one] as the compound, how does the pIC50 read?
A: 6.70 to 7.70

Q: How did the pIC50 turn out when `O=C1N(CCc2ccccc2)CCN1c1ccc(-c2cn[nH]c2)cc1` [Example 1, 1-(4-(1H-Pyrazol-4-yl)phenyl)-3-phenethylimidazolidin-2-one] was run?
A: 7.70 to 8.68

Q: `COc1cccc(CN2CCN(c3ccc(-c4cn[nH]c4)cc3)C2=O)c1` [Example 2, 1-(4-(1H-pyrazol-4-yl)phenyl)-3-(3-methoxybenzyl)imidazolidin-2-one] was tested. Which pIC50 did it give?
A: 7.70 to 8.68

Q: `O=C1N(Cc2ccccc2)CCN1c1ccc(-c2cn[nH]c2)cc1` [Example 3, 1-(4-(1H-pyrazol-4-yl)phenyl)-3-benzylimidazolidin-2-one] was tested. Which pIC50 did it give?
A: 7.70 to 8.68

Q: With `O=C1N(Cc2cccc(F)c2)CCN1c1ccc(-c2cn[nH]c2)cc1` [Example 4, 1-(4-(1H-pyrazol-4-yl)phenyl)-3-(3-fluorobenzyl)imidazolidin-2-one] as the compound, how does the pIC50 read?
A: 7.70 to 8.68

Q: `O=C1N(Cc2ccc(F)cc2)CCN1c1ccc(-c2cn[nH]c2)cc1` [Example 5, 1-(4-(1H-pyrazol-4-yl)phenyl)-3-(4-fluorobenzyl)imidazolidin-2-one] was tested. Which pIC50 did it give?
A: 6.70 to 7.70

Q: How did the pIC50 turn out when `COc1cc(N2CCN(Cc3cccc(F)c3)C2=O)ccc1-c1cn[nH]c1` [Example 6, 1-(3-Fluorobenzyl)-3-(3-methoxy-4-(1H-pyrazol-4-yl)phenyl)imidazolidin-2-one] was run?
A: 7.70 to 8.68

Q: How did the pIC50 turn out when `COc1cccc(CN2CCN(c3ccc(-c4cn[nH]c4)c(OC)c3)C2=O)c1` [Example 7, 1-(3-Methoxy-4-(1H-pyrazol-4-yl)phenyl)-3-(3-methoxybenzyl)imidazolidin-2-one] was run?
A: 7.70 to 8.68

Q: With `COc1cc(N2CCN(CCc3ccc(F)cc3)C2=O)ccc1-c1cn[nH]c1` [Example 8, 1-(4-Fluorophenethyl)-3-(3-methoxy-4-(1H-pyrazol-4-yl)phenyl)imidazolidin-2-one] as the compound, how does the pIC50 read?
A: 5.70 to 6.70

Q: `COc1cc(-c2cn[nH]c2)ccc1N1CCN(Cc2cccc(F)c2)C1=O` [Example 9, 1-(3-Fluorobenzyl)-3-(2-methoxy-4-(1H-pyrazol-4-yl)phenyl)imidazolidin-2-one] was tested. Which pIC50 did it give?
A: 6.70 to 7.70

Q: How did the pIC50 turn out when `COc1cccc(CN2CCN(c3ccc(-c4cn[nH]c4)cc3OC)C2=O)c1` [Example 10, 1-(2-Methoxy-4-(1H-pyrazol-4-yl)phenyl)-3-(3-methoxybenzyl)imidazolidin-2-one] was run?
A: 7.70 to 8.68

Q: With `COc1cc(-c2cn[nH]c2)ccc1N1CCN(CCc2ccccc2F)C1=O` [Example 11, 1-(2-Fluorophenethyl)-3-(2-methoxy-4-(1H-pyrazol-4-yl)phenyl)imidazolidin-2-one] as the compound, how does the pIC50 read?
A: 6.70 to 7.70

Q: `COc1cc(-c2cn[nH]c2)ccc1N1CCN(Cc2ccccc2)C1=O` [Example 12, 1-Benzyl-3-(2-methoxy-4-(1H-pyrazol-4-yl)phenyl)imidazolidin-2-one] was tested. Which pIC50 did it give?
A: 5.70 to 6.70

Q: `COc1cccc([C@@H](C)N2CCN(c3ccc(-c4cn[nH]c4)c(OC)c3)C2=O)c1` [Example 13, (R)-1-(3-Methoxy-4-(1H-pyrazol-4-yl)phenyl)-3-(1-(3-methoxyphenyl)ethyl)imidazolidin-2-one] was tested. Which pIC50 did it give?
A: > 8.70

Q: How did the pIC50 turn out when `COc1cccc([C@@H](C)N2CCN(c3ccc(-c4cn[nH]c4)cc3OC)C2=O)c1` [Example 14, (R)-1-(2-Methoxy-4-(1H-pyrazol-4-yl)phenyl)-3-(1-(3-methoxyphenyl)ethyl)imidazolidin-2-one] was run?
A: 6.70 to 7.70

Q: With `COc1ccc(F)c(CN2CCN(c3ccc(-c4cn[nH]c4)c(OC)c3)C2=O)c1` [Example 15, 1-(2-Fluoro-5-methoxybenzyl)-3-(3-methoxy-4-(1H-pyrazol-4-yl)phenyl)imidazolidin-2-one] as the compound, how does the pIC50 read?
A: 6.70 to 7.70

Q: With `COc1cc(N2CCN(Cc3c(F)cccc3F)C2=O)ccc1-c1cn[nH]c1` [Example 16, 1-(2,6-Difluorobenzyl)-3-(3-methoxy-4-(1H-pyrazol-4-yl)phenyl)imidazolidin-2-one] as the compound, how does the pIC50 read?
A: 6.70 to 7.70

Q: How did the pIC50 turn out when `COc1cc(N2CCN(Cc3ccccc3F)C2=O)ccc1-c1cn[nH]c1` [Example 17, 1-(2-Fluorobenzyl)-3-(3-methoxy-4-(1H-pyrazol-4-yl)phenyl)imidazolidin-2-one] was run?
A: 6.70 to 7.70

Q: `COc1cc(N2CCN(Cc3ccccc3)C2=O)ccc1-c1cn[nH]c1` [Example 18, 1-Benzyl-3-(3-methoxy-4-(1H-pyrazol-4-yl)phenyl)imidazolidin-2-one] was tested. Which pIC50 did it give?
A: 6.70 to 7.70

Q: `COc1cccc(C(CC(=O)O)N2CCN(c3ccc(-c4cn[nH]c4)c(OC)c3)C2=O)c1` (centres unmarked) [Example 19, 3-(3-(3-Methoxy-4-(1H-pyrazol-4-yl)phenyl)-2-oxoimidazolidin-1-yl)-3-(3-methoxyphenyl)propanoic Acid, TFA] was tested. Which pIC50 did it give?
A: 6.70 to 7.70

Q: With `COC(=O)CC(c1cccc(OC)c1)N1CCN(c2ccc(-c3cn[nH]c3)c(OC)c2)C1=O` (centres unmarked) [Example 20, Methyl 3-(3-(3-methoxy-4-(1H-pyrazol-4-yl)phenyl)-2-oxoimidazolidin-1-yl)-3-(3-methoxyphenyl)propanoate] as the compound, how does the pIC50 read?
A: 5.70 to 6.70

Q: How did the pIC50 turn out when `COc1cccc(C(CCO)N2CCN(c3ccc(-c4cn[nH]c4)c(OC)c3)C2=O)c1` (centres unmarked) [Example 21, 1-(3-Hydroxy-1-(3-methoxyphenyl)propyl)-3-(3-methoxy-4-(1H-pyrazol-4-yl)phenyl)imidazolidin-2-one] was run?
A: 7.70 to 8.68

Q: How did the pIC50 turn out when `COc1cccc(C(CC(C)(C)O)N2CCN(c3ccc(-c4cn[nH]c4)c(OC)c3)C2=O)c1` (centres unmarked) [Example 22, 1-(3-Hydroxy-1-(3-methoxyphenyl)-3-methylbutyl)-3-(3-methoxy-4-(1H-pyrazol-4-yl)phenyl)imidazolidin-2-one] was run?
A: 5.70 to 6.70

Q: How did the pIC50 turn out when `CCc1cc(N2CCN(Cc3cccc(OC)c3)C2=O)ccc1-c1cn[nH]c1` [Example 23, 1-(3-Ethyl-4-(1H-pyrazol-4-yl)phenyl)-3-(3-methoxybenzyl)imidazolidin-2-one] was run?
A: 7.70 to 8.68

— US10123993B2, “Cyclic ureas as inhibitors of rock” (BRISTOL-MYERS SQUIBB COMPANY, priority 2015, dated 2018)
